Assay results: the supplement of paper PMC12463676, “Small-molecule dissolution of stress granules by redox modulation benefits ALS models” (Nature Chemical Biology, 2025)

Key:
[1] = compound: NC(=O)CCCCC1CCSS1 [lipoamide]; experiment: thermal stability z-score vs DMSO; higher = more thermally stabilized by treatment; conditions: HeLa, lipoamide concentration 100 µM
Experimental: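 Cellular thermal proteome profiling in HeLa cells. Cells were treated with 100 µM lipoamide for 1 h, with or without 1 mM arsenate for a further 1 h, then heated to ten temperatures (37-66.3 °C), and soluble protein was quantified by TMT mass spectrometry relative to 0.1% DMSO controls. The thermal stability score (sum of log2 fold changes minus the abundance score) was transformed to a z-score; mean of n = 3 experiments.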

[2] = compound: O=[As]([O-])(O)O.[K+] [potassium arsenate]; experiment: as above; conditions: HeLa; arsenate concentration 1 mM
Experimental: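 Cellular thermal proteome profiling in HeLa cells treated with 1 mM arsenate for 1 h (DMSO pretreatment), heated to ten temperatures (37-66.3 °C). Soluble protein was quantified by TMT mass spectrometry relative to DMSO controls; the thermal stability score was transformed to a z-score; mean of n = 3 experiments.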

[3] = arsenate co-treatment: 1 mM arsenate 1 h
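Note: each temperature applied for 3 min, abundance score taken as mean log2 fold change at the two lowest temperatures, z-score obtained by mean subtraction and division by SD.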

## NABP2 (UniProt Q9BQ15)
Sequence of UniProt Q9BQ15 (Q9BQ15 whole entry): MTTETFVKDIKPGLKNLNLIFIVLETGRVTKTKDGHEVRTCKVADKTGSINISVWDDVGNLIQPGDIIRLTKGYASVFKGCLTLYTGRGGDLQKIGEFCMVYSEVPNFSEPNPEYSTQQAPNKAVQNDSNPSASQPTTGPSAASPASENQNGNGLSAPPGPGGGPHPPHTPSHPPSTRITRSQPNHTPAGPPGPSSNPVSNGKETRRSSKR
[1]; [3]
  thermal stability z-score: -0.423
[1]; arsenate co-treatment: none
  thermal stability z-score: -0.174
[2]
  thermal stability z-score: -0.112

## AARS2 (UniProt Q5JTZ9)
Sequence of UniProt Q5JTZ9 (Q5JTZ9 whole entry): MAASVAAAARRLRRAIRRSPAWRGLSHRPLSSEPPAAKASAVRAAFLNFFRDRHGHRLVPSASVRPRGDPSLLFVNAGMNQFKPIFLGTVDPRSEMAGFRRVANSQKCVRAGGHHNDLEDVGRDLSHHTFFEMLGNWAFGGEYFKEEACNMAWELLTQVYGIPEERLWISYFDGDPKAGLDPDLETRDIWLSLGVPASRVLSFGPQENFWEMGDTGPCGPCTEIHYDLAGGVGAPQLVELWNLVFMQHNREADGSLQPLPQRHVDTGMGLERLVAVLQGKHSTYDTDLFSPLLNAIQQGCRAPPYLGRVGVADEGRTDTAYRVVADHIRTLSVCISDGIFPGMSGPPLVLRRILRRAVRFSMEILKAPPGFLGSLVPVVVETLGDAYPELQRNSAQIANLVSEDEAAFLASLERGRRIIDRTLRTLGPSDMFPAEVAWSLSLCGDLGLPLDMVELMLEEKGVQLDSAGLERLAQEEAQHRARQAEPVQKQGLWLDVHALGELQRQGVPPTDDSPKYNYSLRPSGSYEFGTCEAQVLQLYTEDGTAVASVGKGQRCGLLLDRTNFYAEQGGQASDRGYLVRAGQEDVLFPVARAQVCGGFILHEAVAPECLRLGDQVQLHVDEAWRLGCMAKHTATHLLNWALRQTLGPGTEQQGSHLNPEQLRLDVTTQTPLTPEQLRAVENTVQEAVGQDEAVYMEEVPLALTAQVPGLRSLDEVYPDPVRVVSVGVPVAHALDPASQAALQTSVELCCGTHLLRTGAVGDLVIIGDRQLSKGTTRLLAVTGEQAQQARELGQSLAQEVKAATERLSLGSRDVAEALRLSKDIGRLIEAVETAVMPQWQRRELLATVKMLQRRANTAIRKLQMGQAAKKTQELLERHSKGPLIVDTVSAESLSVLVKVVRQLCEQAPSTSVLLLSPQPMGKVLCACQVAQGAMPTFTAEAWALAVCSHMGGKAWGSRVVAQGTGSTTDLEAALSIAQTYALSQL
[1]; [3]
  thermal stability z-score: -0.428
[1]; arsenate co-treatment: none
  thermal stability z-score: -0.143
[2]
  thermal stability z-score: -0.095

## KAT8 (UniProt Q9H7Z6)
Sequence of UniProt Q9H7Z6 (Q9H7Z6 whole entry): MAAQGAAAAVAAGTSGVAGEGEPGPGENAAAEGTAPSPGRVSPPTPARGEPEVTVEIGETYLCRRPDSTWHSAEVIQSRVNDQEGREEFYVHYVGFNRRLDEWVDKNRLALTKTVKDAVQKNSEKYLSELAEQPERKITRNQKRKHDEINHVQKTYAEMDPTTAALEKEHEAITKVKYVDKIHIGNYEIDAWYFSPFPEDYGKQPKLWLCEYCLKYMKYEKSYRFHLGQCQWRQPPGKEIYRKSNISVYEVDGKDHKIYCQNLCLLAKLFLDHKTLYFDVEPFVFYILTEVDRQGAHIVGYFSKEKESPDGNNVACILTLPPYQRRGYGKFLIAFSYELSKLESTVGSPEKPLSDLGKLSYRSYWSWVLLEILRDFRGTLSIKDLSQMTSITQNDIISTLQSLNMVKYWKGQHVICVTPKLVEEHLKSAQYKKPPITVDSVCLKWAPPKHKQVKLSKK
[1]; [3]
  thermal stability z-score: 0.773
[1]; arsenate co-treatment: none
  thermal stability z-score: -0.409
[2]
  thermal stability z-score: -0.509

## PSAT1 (UniProt Q9Y617)
[1]; [3]
  thermal stability z-score: 0.659
[1]; arsenate co-treatment: none
  thermal stability z-score: 0.402
[2]
  thermal stability z-score: -0.653

## WNK1 (UniProt Q9H4A3)
[1]; [3]
  thermal stability z-score: 0.149
[1]; arsenate co-treatment: none
  thermal stability z-score: -0.0327
[2]
  thermal stability z-score: 0.386

## TGFBR1 (UniProt P36897)
Sequence of UniProt P36897 (P36897 whole entry): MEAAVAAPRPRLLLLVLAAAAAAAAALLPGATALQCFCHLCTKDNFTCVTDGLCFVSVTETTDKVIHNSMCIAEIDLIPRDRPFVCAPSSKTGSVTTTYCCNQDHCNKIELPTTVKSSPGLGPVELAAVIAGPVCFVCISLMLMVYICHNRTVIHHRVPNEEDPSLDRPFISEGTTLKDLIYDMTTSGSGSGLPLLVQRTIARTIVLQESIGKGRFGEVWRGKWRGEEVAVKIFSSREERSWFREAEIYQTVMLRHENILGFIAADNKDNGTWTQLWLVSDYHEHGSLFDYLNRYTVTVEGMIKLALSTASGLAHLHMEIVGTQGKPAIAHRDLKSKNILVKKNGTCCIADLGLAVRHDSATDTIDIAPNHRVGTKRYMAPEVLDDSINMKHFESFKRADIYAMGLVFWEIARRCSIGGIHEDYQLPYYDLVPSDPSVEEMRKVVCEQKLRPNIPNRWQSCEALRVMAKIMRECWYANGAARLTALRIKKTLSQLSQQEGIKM
[1]; [3]
  thermal stability z-score: -0.829
[1]; arsenate co-treatment: none
  thermal stability z-score: 0.245
[2]
  thermal stability z-score: -0.162

## TRIM56 (UniProt Q9BRZ2)
Sequence of UniProt Q9BRZ2 (Q9BRZ2 whole entry): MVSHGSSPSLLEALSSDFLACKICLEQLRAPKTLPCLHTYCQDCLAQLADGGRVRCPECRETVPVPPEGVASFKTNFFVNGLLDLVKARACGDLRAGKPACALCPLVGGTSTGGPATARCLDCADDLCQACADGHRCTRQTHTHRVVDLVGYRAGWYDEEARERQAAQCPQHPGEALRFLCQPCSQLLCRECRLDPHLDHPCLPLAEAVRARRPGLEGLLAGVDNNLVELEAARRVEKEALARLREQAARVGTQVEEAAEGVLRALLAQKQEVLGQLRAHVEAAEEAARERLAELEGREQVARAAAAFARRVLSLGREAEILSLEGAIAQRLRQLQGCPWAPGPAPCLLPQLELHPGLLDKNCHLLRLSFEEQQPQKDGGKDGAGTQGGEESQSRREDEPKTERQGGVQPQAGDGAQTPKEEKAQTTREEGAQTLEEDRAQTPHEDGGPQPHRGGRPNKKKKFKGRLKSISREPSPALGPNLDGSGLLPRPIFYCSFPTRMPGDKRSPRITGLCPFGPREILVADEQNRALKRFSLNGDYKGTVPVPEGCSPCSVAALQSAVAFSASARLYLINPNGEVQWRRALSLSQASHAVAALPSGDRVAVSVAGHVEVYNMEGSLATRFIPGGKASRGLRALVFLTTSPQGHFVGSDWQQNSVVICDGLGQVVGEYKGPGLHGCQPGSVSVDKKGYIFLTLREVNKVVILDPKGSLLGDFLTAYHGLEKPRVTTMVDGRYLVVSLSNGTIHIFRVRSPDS
[1]; [3]
  thermal stability z-score: -0.0694
[1]; arsenate co-treatment: none
  thermal stability z-score: -0.839
[2]
  thermal stability z-score: -3.98

## WDR41 (UniProt Q9HAD4)
Sequence of UniProt Q9HAD4 (Q9HAD4 whole entry): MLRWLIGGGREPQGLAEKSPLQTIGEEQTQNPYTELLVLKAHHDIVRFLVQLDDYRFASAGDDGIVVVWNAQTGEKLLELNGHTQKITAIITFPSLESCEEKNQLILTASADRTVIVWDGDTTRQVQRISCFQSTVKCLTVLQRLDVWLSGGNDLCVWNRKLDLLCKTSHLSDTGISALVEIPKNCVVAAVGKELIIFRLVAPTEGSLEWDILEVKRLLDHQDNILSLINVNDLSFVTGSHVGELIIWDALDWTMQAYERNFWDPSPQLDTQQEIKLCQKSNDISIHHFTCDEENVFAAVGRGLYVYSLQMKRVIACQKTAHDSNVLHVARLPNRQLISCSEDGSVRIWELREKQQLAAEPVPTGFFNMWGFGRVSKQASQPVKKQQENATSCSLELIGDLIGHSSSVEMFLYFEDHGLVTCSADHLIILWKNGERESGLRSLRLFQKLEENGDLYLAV
[1]; [3]
  thermal stability z-score: -0.212
[1]; arsenate co-treatment: none
  thermal stability z-score: -0.267
[2]
  thermal stability z-score: -0.285

## CTIF (UniProt O43310)
[1]; [3]
  thermal stability z-score: -0.164
[1]; arsenate co-treatment: none
  thermal stability z-score: 0.404
[2]
  thermal stability z-score: 0.233

## OAS3 (UniProt Q9Y6K5)
[1]; [3]
  thermal stability z-score: -0.0852
[1]; arsenate co-treatment: none
  thermal stability z-score: 0.257
[2]
  thermal stability z-score: -0.07

## UPRT (UniProt Q96BW1)
[1]; [3]
  thermal stability z-score: -0.0247
[1]; arsenate co-treatment: none
  thermal stability z-score: -0.292
[2]
  thermal stability z-score: 0.289

## XPOT (UniProt O43592)
[1]; [3]
  thermal stability z-score: -0.645
[1]; arsenate co-treatment: none
  thermal stability z-score: -0.112
[2]
  thermal stability z-score: -0.212

## CCDC186 (UniProt Q7Z3E2)
[1]; [3]
  thermal stability z-score: -0.0502
[1]; arsenate co-treatment: none
  thermal stability z-score: -0.00496
[2]
  thermal stability z-score: 0.0522

## HDAC4 (UniProt P56524)
[1]; [3]
  thermal stability z-score: 0.426
[1]; arsenate co-treatment: none
  thermal stability z-score: 0.45
[2]
  thermal stability z-score: -0.19

## VPS51 (UniProt Q9UID3)
Sequence of UniProt Q9UID3 (Q9UID3 whole entry): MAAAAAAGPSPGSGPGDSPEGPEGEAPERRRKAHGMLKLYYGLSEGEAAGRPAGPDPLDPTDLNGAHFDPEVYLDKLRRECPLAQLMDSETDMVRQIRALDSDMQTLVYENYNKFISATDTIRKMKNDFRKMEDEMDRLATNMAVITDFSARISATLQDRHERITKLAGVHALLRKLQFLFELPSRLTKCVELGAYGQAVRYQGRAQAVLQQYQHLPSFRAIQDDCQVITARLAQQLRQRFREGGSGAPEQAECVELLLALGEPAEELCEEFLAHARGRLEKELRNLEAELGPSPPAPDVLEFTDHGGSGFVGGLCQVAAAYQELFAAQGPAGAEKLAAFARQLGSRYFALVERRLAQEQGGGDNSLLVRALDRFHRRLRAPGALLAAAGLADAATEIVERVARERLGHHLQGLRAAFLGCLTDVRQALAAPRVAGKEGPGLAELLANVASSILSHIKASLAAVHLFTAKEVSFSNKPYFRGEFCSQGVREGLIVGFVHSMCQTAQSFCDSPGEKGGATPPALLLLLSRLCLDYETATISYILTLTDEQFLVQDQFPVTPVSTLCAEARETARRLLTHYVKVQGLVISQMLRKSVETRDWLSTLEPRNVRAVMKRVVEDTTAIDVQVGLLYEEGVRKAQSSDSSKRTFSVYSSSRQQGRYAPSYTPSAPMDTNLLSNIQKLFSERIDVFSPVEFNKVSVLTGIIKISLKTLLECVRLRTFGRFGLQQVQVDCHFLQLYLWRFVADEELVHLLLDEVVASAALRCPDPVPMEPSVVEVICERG
[1]; [3]
  thermal stability z-score: -0.0785
[1]; arsenate co-treatment: none
  thermal stability z-score: 0.169
[2]
  thermal stability z-score: -0.285

## EXT2 (UniProt Q93063)
[1]; [3]
  thermal stability z-score: -1.16
[1]; arsenate co-treatment: none
  thermal stability z-score: -0.953
[2]
  thermal stability z-score: -0.573

## GYG1 (UniProt P46976)
[1]; [3]
  thermal stability z-score: -0.215
[1]; arsenate co-treatment: none
  thermal stability z-score: 0.14
[2]
  thermal stability z-score: -0.536

## R3HCC1 (UniProt Q9Y3T6)
[1]; [3]
  thermal stability z-score: 0.183
[1]; arsenate co-treatment: none
  thermal stability z-score: 0.233
[2]
  thermal stability z-score: -0.101

## MANBAL (UniProt Q9NQG1)
[1]; [3]
  thermal stability z-score: 1.06
[1]; arsenate co-treatment: none
  thermal stability z-score: 1.59
[2]
  thermal stability z-score: 0.0493

## PITX1 (UniProt P78337)
[1]; [3]
  thermal stability z-score: 0.0195
[1]; arsenate co-treatment: none
  thermal stability z-score: -0.0855
[2]
  thermal stability z-score: 0.027

## MKRN2 (UniProt Q9H000)
[1]; [3]
  thermal stability z-score: 0.303
[1]; arsenate co-treatment: none
  thermal stability z-score: 0.829
[2]
  thermal stability z-score: -0.0571

## HS1BP3 (UniProt Q53T59)
[1]; [3]
  thermal stability z-score: -0.135
[1]; arsenate co-treatment: none
  thermal stability z-score: 0.097
[2]
  thermal stability z-score: -0.105

## IARS2 (UniProt Q9NSE4)
[1]; [3]
  thermal stability z-score: -0.232
[1]; arsenate co-treatment: none
  thermal stability z-score: 0.259
[2]
  thermal stability z-score: -0.455

## IDH3G (UniProt P51553)
[1]; [3]
  thermal stability z-score: 0.738
[1]; arsenate co-treatment: none
  thermal stability z-score: -0.664
[2]
  thermal stability z-score: -0.189

## HERPUD1 (UniProt Q15011)
[1]; [3]
  thermal stability z-score: 0.186
[1]; arsenate co-treatment: none
  thermal stability z-score: -0.201
[2]
  thermal stability z-score: -0.94

## IQSEC1 (UniProt Q6DN90)
[1]; [3]
  thermal stability z-score: 0.165
[1]; arsenate co-treatment: none
  thermal stability z-score: 0.212
[2]
  thermal stability z-score: 0.159

## ACSL4 (UniProt O60488)
[1]; [3]
  thermal stability z-score: 0.208
[1]; arsenate co-treatment: none
  thermal stability z-score: 0.296
[2]
  thermal stability z-score: -1.66

## PMPCA (UniProt Q10713)
Sequence of UniProt Q10713 (Q10713 whole entry): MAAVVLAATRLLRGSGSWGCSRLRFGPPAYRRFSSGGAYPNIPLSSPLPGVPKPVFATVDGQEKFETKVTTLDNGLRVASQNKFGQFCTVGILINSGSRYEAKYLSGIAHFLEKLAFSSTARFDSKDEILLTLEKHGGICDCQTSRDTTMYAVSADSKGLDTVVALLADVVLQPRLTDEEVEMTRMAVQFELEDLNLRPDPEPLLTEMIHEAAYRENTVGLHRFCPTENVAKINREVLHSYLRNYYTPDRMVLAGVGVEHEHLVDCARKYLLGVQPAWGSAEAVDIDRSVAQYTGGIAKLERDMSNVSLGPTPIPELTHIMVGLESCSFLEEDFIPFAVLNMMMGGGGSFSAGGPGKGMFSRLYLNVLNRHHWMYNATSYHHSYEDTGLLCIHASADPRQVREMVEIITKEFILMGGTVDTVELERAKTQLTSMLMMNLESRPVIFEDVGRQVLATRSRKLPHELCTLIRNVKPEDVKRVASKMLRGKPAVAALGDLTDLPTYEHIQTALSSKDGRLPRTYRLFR
[1]; [3]
  thermal stability z-score: -0.137
[1]; arsenate co-treatment: none
  thermal stability z-score: -0.112
[2]
  thermal stability z-score: 0.0736

## PELO (UniProt Q9BRX2)
[1]; [3]
  thermal stability z-score: -0.811
[1]; arsenate co-treatment: none
  thermal stability z-score: -0.364
[2]
  thermal stability z-score: -0.0213

## HSD17B7 (UniProt P56937)
Sequence of UniProt P56937 (P56937 whole entry): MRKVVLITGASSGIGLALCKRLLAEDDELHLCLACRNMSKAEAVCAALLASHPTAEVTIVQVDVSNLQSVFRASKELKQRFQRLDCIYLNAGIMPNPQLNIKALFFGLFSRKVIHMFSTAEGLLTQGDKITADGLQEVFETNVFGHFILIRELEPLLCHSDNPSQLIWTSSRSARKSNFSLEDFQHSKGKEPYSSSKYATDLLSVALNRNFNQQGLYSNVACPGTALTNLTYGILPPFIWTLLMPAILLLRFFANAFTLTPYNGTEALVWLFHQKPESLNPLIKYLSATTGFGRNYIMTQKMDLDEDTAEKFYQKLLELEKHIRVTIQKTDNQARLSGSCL
[1]; [3]
  thermal stability z-score: 0.202
[1]; arsenate co-treatment: none
  thermal stability z-score: 0.543
[2]
  thermal stability z-score: 1.82

## U2AF1L5|U2AF1
[1]; [3]
  thermal stability z-score: -0.511
[1]; arsenate co-treatment: none
  thermal stability z-score: -0.0589
[2]
  thermal stability z-score: -1.4

## VAMP8 (UniProt Q9BV40)
[1]; [3]
  thermal stability z-score: 1.3
[1]; arsenate co-treatment: none
  thermal stability z-score: 1.28
[2]
  thermal stability z-score: 0.587

## BCKDK (UniProt O14874)
[1]; [3]
  thermal stability z-score: 0.0555
[1]; arsenate co-treatment: none
  thermal stability z-score: -0.559
[2]
  thermal stability z-score: 0.935

## MXRA7 (UniProt P84157)
[1]; [3]
  thermal stability z-score: 0.254
[1]; arsenate co-treatment: none
  thermal stability z-score: 0.307
[2]
  thermal stability z-score: -0.34

## TXNRD2 (UniProt Q9NNW7)
[1]; [3]
  thermal stability z-score: 0.179
[1]; arsenate co-treatment: none
  thermal stability z-score: 0.166
[2]
  thermal stability z-score: 4.89
